In US11364237B2, “Composition for inhibiting cancer metastasis and treating cancer” (ONCOCROSS CO., LTD., priority 2017, dated 2022):

Assays:
[1] = system: colorectal cancer cell lines CT26, HCT116 and SW480; test: MTT cell survival rate, colorectal cancer cell lines; type: cell-based, mouse (CT26), human (HCT116; conditions: single treatment, 24, 48 and 72 hours; for concentration at which toxicity was shown (cell survival rate): FIGS. 1 to 3
Procedure: In order to confirm the effect of chlorphenesin (named as OC-201), chloroquine (named as OC-202) and chloropyrazine (named as OC-203) alone on the survival rate of colorectal cancer cells, cell survival rate was evaluated for the colorectal cancer cell lines CT26, HCT116 and SW480 cell lines by MTT assay (Promega, Ltd.) according to the manufacturer's protocol. […] The pre-treated cell lines were incubated with 5 mg/mL MTT for 4 hours. Thereafter, the medium was removed, and 150 μL of the solubilization solution and the stop solution were added, followed by incubation at 30° C. for 4 hours. The absorbance of the reaction solution was measured at 570 nm. The cell survival rate was calculated using the following Equation 1. Cell survival rate=absorbance of experimental group (at 570 nm)/absorbance of control (at 570 nm)×100(%) [Equation 1]
(§1) The pre-treated cell lines were incubated with 5 mg/mL MTT for 4 hours. Thereafter, the medium was removed, and 150 μL of the solubilization solution and the stop solution were added, followed by incubation at 30° C. for 4 hours. The absorbance of the reaction solution was measured at 570 nm. The cell survival rate was calculated using the above Equation 1.

[2] = system: pancreatic cancer cell lines Aspc-1, MIAPaCA2 and Panc-1; test: MTT cell survival rate, pancreatic cancer cell lines; type: cell-based, human; conditions: for cytotoxicity (cell survival rate), single administration: up to 1 mM chlorphenesin, up to 100 μM chloropyrazine, 24, 48, 72 hours, FIGS. 30 and 32
Procedure: as §1, with “mg/ml” for “mg/mL”, “equation 1 as described above.” for “above Equation 1.”
as §1, with “mg/ml” for “mg/mL”, “equation” for “Equation”

[3] = system: SNU 308 cell line; test: MTT cell survival rate; type: cell-based, human; conditions: after 48 hours, FIG. 47
Procedure: as §1, with “mg/ml” for “mg/mL”, “equation 1 as described above.” for “the above Equation 1.”

[4] = system: SNU1079; test: MTT cell survival rate; type: cell-based, human; conditions: FIG. 47
Procedure: as §1, with “mg/ml” for “mg/mL”, “equation 1 as described above.” for “the above Equation 1.”

[5] = system: colorectal cancer cell line CT26; test: Wound healing assay at low concentration; type: cell-based, mouse; conditions: 1 μM chlorphenesin; 24 hours; FIG. 59
Procedure: Wound healing analysis was performed to measure cell motility. […] After incubation of the cells for 24 hours in the presence or absence of chlorphenesin (1 μM), a photograph of the dyed monolayers was taken with a microscope.

[6] = system: SW480 cell line; test: Transwell migration assay, chlorphenesin alone; type: cell-based, human; conditions: 18 hours, laminin in lower well, FIGS. 6 and 7
[7] = system: colorectal cancer cell line HCT116; test: Wound healing assay; conditions: 0, 8 and 24 hours, FIGS. 21 to 23
[8] = system: biliary tract cancer cell lines SNU1079 and SNU308; conditions: human, 48 h
Procedure: as §1, with “mg/ml” for “mg/mL”, “equation 1 as described above.” for “the above Equation 1.”
as §1, with “mg/ml” for “mg/mL”, “equation” for “Equation”

[9] = system: colorectal cancer cell lines HCT116; test: Soft agar colony formation assay (anchorage independent growth), chlorphenesin alone; type: cell-based, human; conditions: 3 weeks, FIG. 27
[10] = system: biliary tract cancer cell line SNU1079; test: Transwell migration assay with Combination Index; conditions: 18 hours, FIGS. 51 and 52
[11] = system: CT26 cell-induced tumors; test: CT26 tumor animal model, tumor growth and lung metastasis; type: in vivo, Balb/c mice
Procedure: Specifically, 60 Balb/c mice were subcutaneously inoculated once with 100 μL of CT26 cell suspension (1×10^7 cells/mL) to induce tumors, thereby producing a xenograft animal model. […] For the chlorphenesin single administration, 10 animal models were abdominally administered with 10 mg/kg chlorphenesin (3 times a week) for 5 weeks or 14 animal models were orally administered with 20 mg/kg chlorphenesin (5 times a week) for 5 weeks. 14 animal models were administered with the same dose of PBS as chlorphenesin as a negative control. […] The body weight of the animal models was measured once a week, and the tumor size was measured once a week from the day of drug administration. After 6 weeks, animal models were anesthetized with ether, and tumors and lungs were collected.

[12] = system: CT26 cell line; test: Transwell migration assay, chlorphenesin alone; type: cell-based, mouse; conditions: 18 hours, FIGS. 10 and 11
[13] = system: HCT116 cell line; test: Transwell migration assay, chlorphenesin alone; type: cell-based, human; conditions: 18 hours, FIGS. 8 and 9
[14] = system: colorectal cancer cells CT26 and HCT116; test: Transwell migration assay at low concentration; type: cell-based, mouse (CT26), human (HCT116); conditions: 1 μM chlorphenesin; 8 hours; FIG. 58

| Compound | concentration at which not toxic (cell survival rate) ([1]; FIG. 3) | cytotoxicity (cell survival rate), single administration [2] | concentration at which cytotoxicity was shown [3] | concentration at which cytotoxicity was shown ([4]; after 48 hours) | concentration at which cytotoxicity was shown ([4]; for 24 hours) | concentration at which toxicity was shown (cell survival rate) [1] | concentration at which cytotoxicity was shown ([2]; single administration, FIG. 31) | mobility of the CT26 cell line (wound healing) [5] | concentration at which cell migration was significantly reduced [6] | concentration at which migration was decreased (wound healing) [7] | concentration at which apparent cytotoxicity was shown [8] | concentration at which colony forming ability was decreased [9] | concentration at which cell migration was decreased [10] | concentration at which the decrease of cell migration was remarkable [10] | tumor size compared with the control groups ([11]; chlorphenesin 20 mg/kg orally, 5 times a week for 5 weeks, FIG. 61) | cancer metastasis to lungs compared to control groups ([11]; chlorphenesin-treated group, 5 weeks dosing, lungs collected after 6 weeks, FIG. 60) | concentration at which cell migration was specially decreased [12] | concentration at which cell migration was specially decreased [13] | invasion ability and migration ability of the cells compared to the control [14] |
| --- | --- | --- | --- | --- | --- | --- | --- | --- | --- | --- | --- | --- | --- | --- | --- | --- | --- | --- | --- |
| Clc1cnccn1 [chloropyrazine] | ≤ 100 µM | did not show cytotoxicity even at high doses | – | – | – | – | – | – | – | – | – | – | – | – | – | – | – | – | – |
| CCN(CC)CCCC(C)Nc1ccnc2cc(Cl)ccc12 (stereo not drawn) [chloroquine] | – | – | ≥ 50 µM | ≥ 25 µM | ≥ 50 µM | more than 10 μM | ≥ 50 µM | – | – | – | – | – | – | – | – | – | – | – | – |
| OCC(O)COc1ccc(Cl)cc1 (stereo not drawn) [chlorphenesin] | – | did not show cytotoxicity even at high doses | – | – | – | more than 500 μM | – | reduced | ≥ 25 µM | ≥ 25 µM | ≥ 1000 µM | ≥ 250 µM | ≥ 25 µM | ≥ 100 µM | reduction in the tumor size | no cancer metastasis to lungs | ≥ 250 µM | ≥ 250 µM | significantly reduced |
